Data published in patent US20260285857A1, “BICYCLIC AND HETEROCYCLIC AMIDE COMPOUNDS” (priority 2024, published 2026).

Test system: immunoglobulin light chain protein WIL-FL T46L
Assay: Differential scanning fluorimetry (thermal shift) assay
Type: binding
Conditions: Table A; temperature shift [Tm]compound-[Tm]vehicle; recombinant WIL-FL T46L

Row | SMILES | DSF
1 | Cc1cc(N2CC[C@](C)(c3ccccc3)C2)cn2nc(C34CC(CO3)C4c3nn[nH]n3)nc12 (some centres unmarked) [Compound 76] | ***** (>2.5° C.=*****)
2 | Cc1cc(N2CC[C@](C)(c3ccccc3)C2)cn2nc(C34CC(CO3)C4N3CC4(CC4)NC3=O)nc12 (some centres unmarked) [Compound 78] | ***** (>2.5° C.=*****)
3 | Cc1cc(N2CC[C@](C)(c3ccccc3)C2)cn2nc(C34CC(CO3)C4N3C(=O)NC(=O)C3(C)C)nc12 (some centres unmarked) [Compound 79] | ***** (>2.5° C.=*****)
4 | Cc1cc(N2CC[C@](C)(c3ccccc3)C2)cn2nc(C34CC(CO3)C4CN)nc12 (some centres unmarked) [Compound 80] | ***** (>2.5° C.=*****)
5 | CCC(=O)NCC1C2COC1(c1nc3c(C)cc(N4CC[C@](C)(c5ccccc5)C4)cn3n1)C2 (some centres unmarked) [Compound 81] | ***** (>2.5° C.=*****)
6 | Cc1cc(N2CC[C@](C)(c3ccccc3)C2)cn2nc(C34CC(CO3)C4Cn3ncnc3C)nc12 (some centres unmarked) [Compound 82] | ***** (>2.5° C.=*****)
7 | Cc1ncn(CC2C3COC2(c2nc4c(C)cc(N5CC[C@](C)(c6ccccc6)C5)cn4n2)C3)n1 (some centres unmarked) [Compound 83] | **** (>1.5-2.5° C.=****)
8 | Cc1cc(N2CC[C@](C)(c3ccccc3)C2)cn2nc(C34CC(CO3)C4CN3CCNC(=O)C3)nc12 (some centres unmarked) [Compound 84] | ***** (>2.5° C.=*****)
9 | Cc1cc(N2CC[C@](C)(c3ccccc3)C2)cn2nc(C34CC(CO3)C4CC(N)=O)nc12 (some centres unmarked) [Compound 85] | ***** (>2.5° C.=*****)
10 | Cc1cc(N2CC[C@](C)(c3ccccc3)C2)cn2nc(C34CC(CO3)C4Cc3ncnn3C)nc12 (some centres unmarked) [Compound 86] | ***** (>2.5° C.=*****)
11 | Cc1nn(CC2C3COC2(c2nc4c(C)cc(N5CC[C@](C)(c6ccccc6)C5)cn4n2)C3)c(=O)[nH]1 (some centres unmarked) [Compound 87] | ***** (>2.5° C.=*****)
12 | Cc1cc(N2CC[C@](C)(c3ccccc3)C2)cn2nc(C34CC(CO3)C4Cn3cn[nH]c3=O)nc12 (some centres unmarked) [Compound 88] | ***** (>2.5° C.=*****)
13 | Cc1cc(N2CC[C@](C)(c3ccccc3)C2)cn2nc(C34CC(CO3)C4Cn3cnn(C)c3=O)nc12 (some centres unmarked) [Compound 89] | ***** (>2.5° C.=*****)
14 | Cc1cc(N2CC[C@](C)(c3ccccc3)C2)cn2nc(C34CC(CO3)C4Cn3cnc(C(N)=O)n3)nc12 (some centres unmarked) [Compound 90] | **** (>1.5-2.5° C.=****)
15 | Cc1cc(N2CC[C@](C)(c3ccccc3)C2)cn2nc(C34CC(CO3)C4Cn3cc(C(=O)O)nn3)nc12 (some centres unmarked) [Compound 91] | ***** (>2.5° C.=*****)
16 | Cc1cc(N2CC[C@](C)(c3ccccc3)C2)cn2nc(C34CC(CO3)C4Cn3cc(C(N)=O)nn3)nc12 (some centres unmarked) [Compound 92] | ***** (>2.5° C.=*****)

Row | SMILES | DSF
17 | CCS(=O)(=O)Nc1n[nH]c(C2C3COC2(c2nc4c(C)cc(N5CC[C@](C)(c6ccccc6)C5)cn4n2)C3)n1 (some centres unmarked) [Compound 93] | ***** (>2.5° C.=*****)
18 | Cc1ncn(CC23CC(C(=O)O)(C2)C(c2nc4c(C)cc(N5CC[C@](C)(c6ccccc6)C5)cn4n2)O3)n1 (some centres unmarked) [Compound 94] | ***** (>2.5° C.=*****)
19 | Cc1ncn(CC23CC(C(N)=O)(C2)C(c2nc4c(C)cc(N5CC[C@](C)(c6ccccc6)C5)cn4n2)O3)n1 (some centres unmarked) [Compound 95] | ***** (>2.5° C.=*****)
20 | Cc1cc(OCC2(c3ccccc3)CC2)cn2nc(C34CC(CO3)C4N)nc12 (centres unmarked) [Compound 96] | **** (>1.5-2.5° C.=****)
21 | Cc1cc(OC[C@H](C)c2ccccc2)cn2nc(C34CC(CO3)C4N)nc12 (some centres unmarked) [Compound 98] | *** (>1-1.5° C.=***)
22 | Cc1cc(N2CCC(C)(c3nccs3)C2)cn2nc(C(=O)N3CC[C@@]4(CCN(c5cccc(C(=O)O)n5)C4)C3)nc12 (some centres unmarked) [Compound 99] | **** (>1.5-2.5° C.=****)
23 | Cc1cc(N2CC[C@](C)(c3ccccc3)C2)cn2nc(C(=O)NCC(C)(C)O)nc12 [Compound 100] | ***** (>2.5° C.=*****)
24 | Cc1cc(N2CC[C@](C)(c3ccccc3)C2)cn2nc(C(=O)NC3CCNC3)nc12 (some centres unmarked) [Compound 101] | ***** (>2.5° C.=*****)
25 | Cc1cc(N2CC[C@](C)(c3ccccc3)C2)cn2nc(C(=O)N[C@@H]3CCNC3)nc12 [Compound 102] | ***** (>2.5° C.=*****)
26 | Cc1cc(N2CC[C@](C)(c3ccccc3)C2)cn2nc(C(=O)N(C)[C@H]3CCNC3)nc12 [Compound 103] | ***** (>2.5° C.=*****)
27 | Cc1cc(N2CC[C@](C)(c3ccccc3)C2)cn2nc(C(=O)NC3CCC(O)(C(F)(F)F)C3)nc12 (some centres unmarked) [Compound 104] | ***** (>2.5° C.=*****)
28 | Cc1cc(N2CC[C@](C)(c3ccccc3)C2)cn2nc(C(=O)N[C@H]3CC[C@H](O)C3)nc12 [Compound 105] | ***** (>2.5° C.=*****)
29 | Cc1cc(N2CC[C@](C)(c3ccccc3)C2)cn2nc(C(=O)NCC3(O)COC3)nc12 [Compound 106] | ***** (>2.5° C.=*****)
30 | COC(C)(C)CNC(=O)c1nc2c(C)cc(N3CC[C@](C)(c4ccccc4)C3)cn2n1 [Compound 107] | ***** (>2.5° C.=*****)
31 | CCC(=O)N1CC(O)C(NC(=O)c2nc3c(C)cc(N4CC[C@](C)(c5ccccc5)C4)cn3n2)C1 (some centres unmarked) [Compound 108] | ***** (>2.5° C.=*****)
32 | Cc1cc(N2CC[C@](C)(c3ccccc3)C2)cn2nc(C(=O)NC3CCS(=O)(=O)C3)nc12 (some centres unmarked) [Compound 109] | ***** (>2.5° C.=*****)
